Data: patent US8268821B2, “Methods and compositions” (priority 2003, dated 2012)
Marks after values point to notes of the source that are not given here.

Test system: cancer-related neuropathic pain
Test: Open label dose escalation study of flupirtine, case studies JE and RM
Settings: for SCORE WALKING / SCORE ENJOYMENT / SCORE TOTAL ACTIVITY / SCORE MOOD / SCORE RELATIONSHIPS / SCORE SLEEP / SCORE GENERAL ACTIVITY: pain interference 1-10; for SCORE WALKING: day 1 baseline 7; for SCORE ENJOYMENT / SCORE TOTAL ACTIVITY / AVERAGE PAIN LAST 24 HOURS: day 1 baseline 8; for SCORE NAUSEA / SCORE UN[…] GAIT: day 1 baseline 2; for SCORE POOR CONCENTRATION / WHO PERFORMANCE STATUS / SCORE SLEEP: day 1 baseline 3; for SCORE DROWSINESS / SCORE POOR APPETITE: day 1 baseline 4; for WORST PAIN SCORE LAST 24 HOURS: day 1 baseline 10; for neuropathic dwascriminant function score: >0 = neuropathic, day 1 baseline 2.448; for freezing pain score / score for increased pain due to touch / score for increased pain due to weather changes / squeezing pain score: day 1 baseline 0; for burning pain score: day 1 baseline 90; for electric pain score / for shooting pain score / numbness score / score for overly sensitive to touch / tingling pain score / unpleasant pain score: day 1 baseline 95; for overwhelming pain score: day 1 baseline 98; for SCORE GENERAL ACTIVITY: day 1 baseline 5
[1] = JE day 5, flupirtine 100 mg qid
[2] = JE day 5, flupirtine 100 mg qid, scale 1-4, day 1 baseline 1
[3] = JE day 5, flupirtine 100 mg qid, scale 1-4
[4] = JE day 5, flupirtine 100 mg qid, scale to 10, day 1 baseline 1
[5] = JE day 5, flupirtine 100 mg qid, scale to 10
[6] = JE day 6, flupirtine 100 mg qid
[7] = JE day 6, flupirtine 100 mg qid, day 1 baseline 1
[8] = JE day 6, flupirtine 100 mg qid, scale 1-4, day 1 baseline 1
[9] = JE day 6, flupirtine 100 mg qid, scale 1-4
[10] = JE day 6, flupirtine 100 mg qid, scale to 10, day 1 baseline 1
[11] = JE day 6, flupirtine 100 mg qid, scale to 10
[12] = JE day 7, flupirtine 100 mg qid
[13] = JE day 7, flupirtine 100 mg qid, day 1 baseline 1
[14] = JE day 7, flupirtine 100 mg qid, scale 1-4, day 1 baseline 1
[15] = JE day 7, flupirtine 100 mg qid, scale 1-4
[16] = JE day 7, flupirtine 100 mg qid, scale to 10, day 1 baseline 1
[17] = JE day 7, flupirtine 100 mg qid, scale to 10
[18] = JE day 8, flupirtine 100 mg qid
[19] = JE day 8, flupirtine 100 mg qid, day 1 baseline 1
[20] = JE day 8, flupirtine 100 mg qid, scale 1-4
[21] = JE day 8, flupirtine 100 mg qid, scale 1-4, day 1 baseline 1
[22] = JE, day after day 8 (discharge), flupirtine 100 mg QID with Oxycontin 40 mg/24 hrs, scale to 10

## CCOC(=O)Nc1ccc(NCc2ccc(F)cc2)nc1N [flupirtine]
[1]
  SCORE WALKING: 1
  SCORE ENJOYMENT: 3
  SCORE TOTAL ACTIVITY: 1
[2]
  SCORE CONSTIPATION: 4
  SCORE INDIGESTION: 1
[3]
  SCORE NAUSEA: 1
  SCORE UN[…] GAIT: 4
  SCORE POOR CONCENTRATION: 4
  SCORE DROWSINESS: 4
  SCORE POOR APPETITE: 4
[4]
  LEAST PAIN LAST 24 HRS: 0
  PAIN SCORE RIGHT NOW: 0
[5]
  AVERAGE PAIN LAST 24 HOURS: 0
  WORST PAIN SCORE LAST 24 HOURS: 6
JE day 6, flupirtine 100 mg qid, 0=fully active, 4=completely disabled
  WHO PERFORMANCE STATUS: 3
[6]
  neuropathic dwascriminant function score: −1.048
  freezing pain score: 0
  score for increased pain due to touch: 80
  score for increased pain due to weather changes: 0
  squeezing pain score: 0
  burning pain score: 0
  electric pain score: 0
  for shooting pain score: 0
  numbness score: 0
  score for overly sensitive to touch: 0
  tingling pain score: 0
  unpleasant pain score: 0
  overwhelming pain score: 40
  SCORE SLEEP: 1
  SCORE GENERAL ACTIVITY: 1
  SCORE WALKING: 1
  SCORE ENJOYMENT: 1
  SCORE TOTAL ACTIVITY: 1
[7]
  SCORE MOOD: 1
  SCORE RELATIONSHIPS: 1
[8]
  SCORE CONSTIPATION: 1
  SCORE INDIGESTION: 1
[9]
  SCORE NAUSEA: 1
  SCORE UN[…] GAIT: 3
  SCORE POOR CONCENTRATION: 2
  SCORE DROWSINESS: 3
  SCORE POOR APPETITE: 2
[10]
  LEAST PAIN LAST 24 HRS: 0
  PAIN SCORE RIGHT NOW: 8
[11]
  AVERAGE PAIN LAST 24 HOURS: 8
  WORST PAIN SCORE LAST 24 HOURS: 9
JE day 7, flupirtine 100 mg qid, 0=fully active, 4=completely disabled
  WHO PERFORMANCE STATUS: 3
[12]
  neuropathic dwascriminant function score: −1.408
  freezing pain score: 0
  score for increased pain due to touch: 0
  score for increased pain due to weather changes: 0
  squeezing pain score: 0
  burning pain score: 0
  electric pain score: 0
  for shooting pain score: 0
  numbness score: 0
  score for overly sensitive to touch: 0
  tingling pain score: 0
  unpleasant pain score: 0
  overwhelming pain score: 0
  SCORE SLEEP: 1
  SCORE GENERAL ACTIVITY: 1
  SCORE WALKING: 1
  SCORE ENJOYMENT: 1
  SCORE TOTAL ACTIVITY: 1
[13]
  SCORE MOOD: 1
  SCORE RELATIONSHIPS: 1
[14]
  SCORE CONSTIPATION: 1
  SCORE INDIGESTION: 1
[15]
  SCORE NAUSEA: 1
  SCORE UN[…] GAIT: 2
  SCORE POOR CONCENTRATION: 1
  SCORE DROWSINESS: 3
  SCORE POOR APPETITE: 3
[16]
  LEAST PAIN LAST 24 HRS: 0
  PAIN SCORE RIGHT NOW: 0
[17]
  AVERAGE PAIN LAST 24 HOURS: 0
  WORST PAIN SCORE LAST 24 HOURS: 4
JE day 8, flupirtine 100 mg qid, 0=fully active, 4=completely disabled
  WHO PERFORMANCE STATUS: 3
[18]
  freezing pain score: 0
  score for increased pain due to touch: 0
  score for increased pain due to weather changes: 0
  squeezing pain score: 0
  burning pain score: 0
  electric pain score: 0
  for shooting pain score: 0
  numbness score: 90
  score for overly sensitive to touch: 0
  tingling pain score: 0
  unpleasant pain score: 95
  overwhelming pain score: 95
  SCORE SLEEP: 10
  SCORE GENERAL ACTIVITY: 1*
  SCORE WALKING: 1*
  SCORE ENJOYMENT: 8
  SCORE TOTAL ACTIVITY: 1*
[19]
  SCORE MOOD: 8
  SCORE RELATIONSHIPS: 1
[20]
  other symptoms hallucinations: 1-
  SCORE NAUSEA: 1*
  SCORE POOR CONCENTRATION: 1*
  SCORE DROWSINESS: 1*
  SCORE POOR APPETITE: 1*
[21]
  SCORE CONSTIPATION: 1*
  SCORE INDIGESTION: 1
  other symptom twitch: 1-
JE day 8, flupirtine 100 mg qid, scale to 10, day 1 baseline 1
  PAIN SCORE RIGHT NOW: 9
JE day 8, flupirtine 100 mg qid, scale to 10
  AVERAGE PAIN LAST 24 HOURS: 7
JE, day after day 8 (discharge), flupirtine 100 mg QID with Oxycontin 40 mg/24 hrs, 0=fully active, 4=completely disabled
  WHO performance status score: 2
[22]
  average pain score for the previous 24 hours: 0
  least pain: 0
  worst pain: 0
RM day 2, flupirtine 100 mg qid, 0=fully active, 4=completely disabled
  WHO PERFORMANCE STATUS: 3
